Key:
late watergrass = assay: Test Example 1: herbicidal activity, application before weed generation under submerged conditions (Table 16, symbol A); assay type: in vivo, late watergrass (Echinochloa oryzicola); settings: amount of applied herbicide 320 g/ha
In short: (§1)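 Emulsion formulation, water-diluted to set dose, was put onto the flooded surface (4 cm depth, alluvial soil) the same day weeds were sown and 2.5-leaf rice transplanted. After 3 weeks at 25-30 °C under glass, each species was rated 0 (≤5% kill) to 5 (≥90% kill).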

Japanese bulrush = assay: Test Example 1: herbicidal activity, application before weed generation under submerged conditions (Table 16, symbol B); assay type: in vivo, Japanese bulrush (Schoenoplectus juncoides); settings: amount of applied herbicide 320 g/ha
In short: as §1

oval-leafed pondweed = assay: Test Example 1: herbicidal activity, application before weed generation under submerged conditions (Table 16, symbol C); assay type: in vivo, oval-leafed pondweed (Monochoria vaginalis); settings: amount of applied herbicide 320 g/ha
In short: as §1

barnyard grass [1] = assay: Test Example 3: herbicidal effect by foliage application, Wagner pot (Table 18, symbol H); assay type: in vivo, barnyard grass (Echinochloa crus-galli); settings: 320 g/ha
In short: (§2)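 Plants were sown in alluvial soil held under 0.1–0.5 cm standing water and grown 14 days in a greenhouse at 25–30 °C. An emulsifiable formulation, water-diluted to the set dose, was then sprayed onto the foliage, and effects were scored three weeks later using previously defined criteria.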

Chinese sprangletop = assay: Test Example 3: herbicidal effect by foliage application, Wagner pot (Table 18, symbol D); assay type: in vivo, chinese sprangletop (Leptochloa chinensis); settings: 320 g/ha
In short: as §2

rice flat sedge = assay: Test Example 3: herbicidal effect by foliage application, Wagner pot (Table 18, symbol E); assay type: in vivo, rice flat sedge (Cyperus iria); settings: 320 g/ha
In short: as §2

southern crabgrass [2] = assay: Test Example 4: herbicidal effect by soil treatment (Table 19, symbol F); assay type: in vivo, southern crabgrass (Digitaria ciliaris); settings: amount of applied herbicide 320 g/ha
In short: (§3)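 Soil-surface application: an emulsion agent diluted with water to the predetermined dose is sprayed uniformly over seeds lying under roughly 1.5 cm of sterilized diluvial soil. Boxes stay in a greenhouse at 25° C. to 30° C. Three weeks later, each species is graded on previously defined criteria.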

green foxtail [3] = assay: Test Example 4: herbicidal effect by soil treatment (Table 19, symbol G); assay type: in vivo, green foxtail (Setaria viridis); settings: amount of applied herbicide 320 g/ha
In short: as §3

barnyard grass [4] = assay: Test Example 4: herbicidal effect by soil treatment (Table 19, symbol H); assay type: in vivo, barnyard grass (Echinochloa crus-galli); settings: amount of applied herbicide 320 g/ha
In short: as §3

wild oat [5] = assay: Test Example 4: herbicidal effect by soil treatment (Table 19, symbol I); assay type: in vivo, wild oat (Avena fatua); settings: amount of applied herbicide 320 g/ha
In short: as §3

blackgrass [6] = assay: Test Example 4: herbicidal effect by soil treatment (Table 19, symbol J); assay type: in vivo, blackgrass (Alopecurus myosuroides); settings: amount of applied herbicide 320 g/ha
In short: as §3

Italian ryegrass [7] = assay: Test Example 4: herbicidal effect by soil treatment (Table 19, symbol K); assay type: in vivo, Italian ryegrass (Lolium multiflorum); settings: amount of applied herbicide 320 g/ha
In short: as §3

windgrass [8] = assay: Test Example 4: herbicidal effect by soil treatment (Table 19, symbol L); assay type: in vivo, windgrass (Apera spica-venti); settings: amount of applied herbicide 320 g/ha
In short: as §3

velvetleaf [9] = assay: Test Example 4: herbicidal effect by soil treatment (Table 19, symbol M); assay type: in vivo, velvetleaf (Abutilon theophrasti); settings: amount of applied herbicide 320 g/ha
In short: as §3

redroot pigweed [10] = assay: Test Example 4: herbicidal effect by soil treatment (Table 19, symbol N); assay type: in vivo, redroot pigweed (Amaranthus retroflexus); settings: amount of applied herbicide 320 g/ha
In short: as §3

lambsquarters [11] = assay: Test Example 4: herbicidal effect by soil treatment (Table 19, symbol O); assay type: in vivo, lambsquarters (Chenopodium album); settings: amount of applied herbicide 320 g/ha
In short: as §3

chickweed [12] = assay: Test Example 4: herbicidal effect by soil treatment (Table 19, symbol P); assay type: in vivo, common chickweed (Stellaria media); settings: amount of applied herbicide 320 g/ha
In short: as §3

false cleavers = assay: Test Example 4: herbicidal effect by soil treatment (Table 19, symbol Q); assay type: in vivo, false cleavers (Galium spurium); settings: amount of applied herbicide 320 g/ha
In short: as §3

southern crabgrass [13] = assay: Test Example 5: herbicidal effect by foliage application, plastic box (Table 20, symbol F); assay type: in vivo, southern crabgrass (Digitaria ciliaris); settings: amount of applied herbicide 320 g/ha; foliage application after 14-day growth; evaluated three weeks after application
In short: (§4)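 Sow seeds spot-wise in sterilized diluvial soil; cover with ~1.5 cm soil. Grow 14 days in greenhouse, 25° C. to 30° C. Spray foliage with emulsion diluted to predetermined amount. Rate effect after 3 weeks.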

green foxtail [14] = assay: Test Example 5: herbicidal effect by foliage application, plastic box (Table 20, symbol G); assay type: in vivo, green foxtail (Setaria viridis); settings: amount of applied herbicide 320 g/ha; foliage application after 14-day growth; evaluated three weeks after application
In short: as §4

barnyard grass [15] = assay: Test Example 5: herbicidal effect by foliage application, plastic box (Table 20, symbol H); assay type: in vivo, barnyard grass (Echinochloa crus-galli); settings: amount of applied herbicide 320 g/ha; foliage application after 14-day growth; evaluated three weeks after application
In short: as §4

wild oat [16] = assay: Test Example 5: herbicidal effect by foliage application, plastic box (Table 20, symbol I); assay type: in vivo, wild oat (Avena fatua); settings: amount of applied herbicide 320 g/ha; foliage application after 14-day growth; evaluated three weeks after application
In short: as §4

blackgrass [17] = assay: Test Example 5: herbicidal effect by foliage application, plastic box (Table 20, symbol J); assay type: in vivo, blackgrass (Alopecurus myosuroides); settings: amount of applied herbicide 320 g/ha; foliage application after 14-day growth; evaluated three weeks after application
In short: as §4

Italian ryegrass [18] = assay: Test Example 5: herbicidal effect by foliage application, plastic box (Table 20, symbol K); assay type: in vivo, Italian ryegrass (Lolium multiflorum); settings: amount of applied herbicide 320 g/ha; foliage application after 14-day growth; evaluated three weeks after application
In short: as §4

windgrass [19] = assay: Test Example 5: herbicidal effect by foliage application, plastic box (Table 20, symbol L); assay type: in vivo, windgrass (Apera spica-venti); settings: amount of applied herbicide 320 g/ha; foliage application after 14-day growth; evaluated three weeks after application
In short: as §4

velvetleaf [20] = assay: Test Example 5: herbicidal effect by foliage application, plastic box (Table 20, symbol M); assay type: in vivo, velvetleaf (Abutilon theophrasti); settings: amount of applied herbicide 320 g/ha; foliage application after 14-day growth; evaluated three weeks after application
In short: as §4

redroot pigweed [21] = assay: Test Example 5: herbicidal effect by foliage application, plastic box (Table 20, symbol N); assay type: in vivo, redroot pigweed (Amaranthus retroflexus); settings: amount of applied herbicide 320 g/ha; foliage application after 14-day growth; evaluated three weeks after application
In short: as §4

lambsquarters [22] = assay: Test Example 5: herbicidal effect by foliage application, plastic box (Table 20, symbol O); assay type: in vivo, lambsquarters (Chenopodium album); settings: amount of applied herbicide 320 g/ha; foliage application after 14-day growth; evaluated three weeks after application
In short: as §4

chickweed [23] = assay: Test Example 5: herbicidal effect by foliage application, plastic box (Table 20, symbol P); assay type: in vivo, common chickweed (Stellaria media); settings: amount of applied herbicide 320 g/ha; foliage application after 14-day growth; evaluated three weeks after application
In short: as §4

persian speedwell = assay: Test Example 5: herbicidal effect by foliage application, plastic box (Table 20, symbol R); assay type: in vivo, Persian speedwell (Veronica persica); settings: amount of applied herbicide 320 g/ha; foliage application after 14-day growth; evaluated three weeks after application
In short: as §4

Row | Compound | Herbicidal effect, A: late watergrass (late watergrass) | Herbicidal effect, B: Japanese bulrush (Japanese bulrush) | Herbicidal effect, C: oval-leafed pondweed (oval-leafed pondweed) | herbicidal effect on barnyard grass (H) (barnyard grass [1]) | herbicidal effect on Chinese sprangletop (D) (Chinese sprangletop) | herbicidal effect on rice flat sedge (E) (rice flat sedge) | Herbicidal effect by foliage application, F: southern crabgrass (southern crabgrass [13]) | Herbicidal effect by foliage application, G: green foxtail (green foxtail [14]) | Herbicidal effect by foliage application, H: barnyard grass (barnyard grass [15]) | Herbicidal effect by foliage application, I: wild oat (wild oat [16]) | Herbicidal effect by foliage application, J: blackgrass (blackgrass [17]) | Herbicidal effect by foliage application, K: Italian ryegrass (Italian ryegrass [18]) | Herbicidal effect by foliage application, L: windgrass (windgrass [19]) | Herbicidal effect by foliage application, M: velvetleaf (velvetleaf [20]) | Herbicidal effect by foliage application, N: redroot pigweed (redroot pigweed [21]) | Herbicidal effect by foliage application, O: lambsquarters (lambsquarters [22]) | Herbicidal effect by foliage application, P: chickweed (chickweed [23]) | Herbicidal effect by foliage application, R: persian speedwell (persian speedwell) | further results
1 | Cc1nn(C)c(=O)c(-c2c(-c3ccc(C(F)(F)F)cc3)sc3c(C)cccc23)c1O [4-126] | 3 (Herbicidal rate of 40% or more and less than 70%) | 0 (Herbicidal rate of 5% or less (almost no effect)) | 0 (Herbicidal rate of 5% or less (almost no effect)) | 3 (Herbicidal rate of 40% or more and less than 70%) | 0 (Herbicidal rate of 5% or less (almost no effect)) | 3 (Herbicidal rate of 40% or more and less than 70%) | 0 (Herbicidal rate of 5% or less (almost no effect)) | 0 (Herbicidal rate of 5% or less (almost no effect)) | 0 (Herbicidal rate of 5% or less (almost no effect)) | 0 (Herbicidal rate of 5% or less (almost no effect)) | 3 (Herbicidal rate of 40% or more and less than 70%) | 4 (Herbicidal rate of 70% or more and less than 90%) | 0 (Herbicidal rate of 5% or less (almost no effect)) | 5 (Herbicidal rate of 90% or more (almost completely withered)) | 5 (Herbicidal rate of 90% or more (almost completely withered)) | 3 (Herbicidal rate of 40% or more and less than 70%) | 5 (Herbicidal rate of 90% or more (almost completely withered)) | 5 (Herbicidal rate of 90% or more (almost completely withered)) | Herbicidal effect by soil treatment, F: southern crabgrass (southern crabgrass [2]): 0 (Herbicidal rate of 5% or less (almost no effect)); Herbicidal effect by soil treatment, G: green foxtail (green foxtail [3]): 0 (Herbicidal rate of 5% or less (almost no effect)); Herbicidal effect by soil treatment, H: barnyard grass (barnyard grass [4]): 0 (Herbicidal rate of 5% or less (almost no effect)); Herbicidal effect by soil treatment, I: wild oat (wild oat [5]): 0 (Herbicidal rate of 5% or less (almost no effect)); Herbicidal effect by soil treatment, J: blackgrass (blackgrass [6]): 0 (Herbicidal rate of 5% or less (almost no effect)); Herbicidal effect by soil treatment, K: Italian ryegrass (Italian ryegrass [7]): 1 (Herbicidal rate of 5% or more and less than 20%); Herbicidal effect by soil treatment, L: windgrass (windgrass [8]): 0 (Herbicidal rate of 5% or less (almost no effect)); Herbicidal effect by soil treatment, M: velvetleaf (velvetleaf [9]): 0 (Herbicidal rate of 5% or less (almost no effect)); Herbicidal effect by soil treatment, N: redroot pigweed (redroot pigweed [10]): 5 (Herbicidal rate of 90% or more (almost completely withered)); Herbicidal effect by soil treatment, O: lambsquarters (lambsquarters [11]): 3 (Herbicidal rate of 40% or more and less than 70%); Herbicidal effect by soil treatment, P: chickweed (chickweed [12]): 4 (Herbicidal rate of 70% or more and less than 90%); Herbicidal effect by soil treatment, Q: false cleavers (false cleavers): 0 (Herbicidal rate of 5% or less (almost no effect))
2 | CCCC(=O)Oc1c(C)nn(C)c(=O)c1-c1c(-c2ccc(F)cc2OCC)sc2cc(F)c(F)cc12 [5-032] | 4 (Herbicidal rate of 70% or more and less than 90%) | 1 (Herbicidal rate of 5% or more and less than 20%) | 0 (Herbicidal rate of 5% or less (almost no effect)) | 4 (Herbicidal rate of 70% or more and less than 90%) | 3 (Herbicidal rate of 40% or more and less than 70%) | 0 (Herbicidal rate of 5% or less (almost no effect)) | 0 (Herbicidal rate of 5% or less (almost no effect)) | 2 (Herbicidal rate of 20% or more and less than 40%) | 4 (Herbicidal rate of 70% or more and less than 90%) | 0 (Herbicidal rate of 5% or less (almost no effect)) | 3 (Herbicidal rate of 40% or more and less than 70%) | 0 (Herbicidal rate of 5% or less (almost no effect)) | 4 (Herbicidal rate of 70% or more and less than 90%) | 4 (Herbicidal rate of 70% or more and less than 90%) | 3 (Herbicidal rate of 40% or more and less than 70%) | 3 (Herbicidal rate of 40% or more and less than 70%) | 5 (Herbicidal rate of 90% or more (almost completely withered)) | 3 (Herbicidal rate of 40% or more and less than 70%) | F: southern crabgrass, herbicidal effect grade (southern crabgrass [2]): 0 (Herbicidal rate of 5% or less (almost no effect)); G: green foxtail, herbicidal effect grade (green foxtail [3]): 3 (Herbicidal rate of 40% or more and less than 70%); H: barnyard grass, herbicidal effect grade (barnyard grass [4]): 0 (Herbicidal rate of 5% or less (almost no effect)); I: wild oat, herbicidal effect grade (wild oat [5]): 0 (Herbicidal rate of 5% or less (almost no effect)); J: blackgrass, herbicidal effect grade (blackgrass [6]): 3 (Herbicidal rate of 40% or more and less than 70%); K: Italian ryegrass, herbicidal effect grade (Italian ryegrass [7]): 0 (Herbicidal rate of 5% or less (almost no effect)); L: windgrass, herbicidal effect grade (windgrass [8]): 5 (Herbicidal rate of 90% or more (almost completely withered)); M: velvetleaf, herbicidal effect grade (velvetleaf [9]): 1 (Herbicidal rate of 5% or more and less than 20%); N: redroot pigweed, herbicidal effect grade (redroot pigweed [10]): 4 (Herbicidal rate of 70% or more and less than 90%); O: lambsquarters, herbicidal effect grade (lambsquarters [11]): 4 (Herbicidal rate of 70% or more and less than 90%); P: chickweed, herbicidal effect grade (chickweed [12]): 0 (Herbicidal rate of 5% or less (almost no effect)); Q: false cleavers, herbicidal effect grade (false cleavers): 0 (Herbicidal rate of 5% or less (almost no effect))
